We go through 100 molecules from ChEMBL document CHEMBL3507680, “University of Dundee, Gates Library screen for HepG2 cell viability”.

This data set can be described thus: Human HepG2 cell viability assay in 384 well format. In kind it is toxicity, cell-based. Further details: dose 125 nL, time 70.5 hour; cytotoxicity at 70.5 h: concentration not given beside the values. Particulars: HepG2 cells, read-out: Inhibition.
Take `COC(=O)c1ccc(-c2ccc(/C=C3\C(=O)NC(=N)N3C)o2)cc1`: the cytotoxicity at 70.5 h was 12.1%.
Next, `c1ccc(OC2COC3(CCN(Cc4ccccn4)CC3)C2)cc1` (stereo not given): 25.2%; `COc1ccnc(N2C[C@@H](NS(=O)(=O)N(C)C)[C@H](C(C)C)C2)n1`: 9.46%; `CCN1CCOCC12CCN(c1ccc(C#N)cc1)CC2`: -6.86%.
Take `CCOc1ccccc1NC(=O)N(CCO)Cc1ccsc1`: the cytotoxicity at 70.5 h was 2.23%.
For the molecule `Cc1cc(C(=O)N[C@H]2CN(CCC(N)=O)C[C@@H]2C2CC2)sc1C`, the cytotoxicity at 70.5 h stood at 9.55%.
For `COCCC(=O)N1Cc2nc3c(C)c(-c4cccs4)nn3c(O)c2C1`, the cytotoxicity at 70.5 h is -14.7%.
Take `O=C(Cc1cccnc1)N1CCC(OCc2ccccc2)CC1`: the cytotoxicity at 70.5 h is -11.4%.
As to `Cc1nnc(CN(Cc2ccccc2Cl)C2CCCC2)o1`, the cytotoxicity at 70.5 h was -5.33%.
With `Cc1cccc(C(=O)NCc2ccc(N3CCCCCC3)nc2)n1`, the cytotoxicity at 70.5 h was -6.26%.
For `O=C(CCCN1CCOCC1)N1CCCC(CO)(CC2CC2)C1` (stereo not given), the cytotoxicity at 70.5 h was -9.81%.
Turning to `CC(C)CN1CCc2c(CN(C)Cc3ccco3)cncc2C1`, the cytotoxicity at 70.5 h was 4.58%.
For `Cc1nsc(NC(=O)N2CCC(C(C)(C)O)CC2)n1`, the cytotoxicity at 70.5 h is -5.05%.
For the molecule `CCN(CC1CN(Cc2cccc(C#N)c2)CCO1)c1cccnn1` (stereo not given), the cytotoxicity at 70.5 h was 0.605%.
The value for `Cc1nncn1CCN1C(=O)CC2(CCCC2)CC1=O` was -7.54%.
Turning to `Cc1nc(CN(C)C2CCCN(c3ccccc3)C2)no1` (stereo not given), the cytotoxicity at 70.5 h is -3.56%.
Next, `CN(C)C(=O)C1OC2(CCNCC2)c2ccccc21` (stereo not given): -6.23%.
Regarding `CC(=O)NCC(=O)N1CCN(Cc2cccnc2)c2ncccc2C1`, the cytotoxicity at 70.5 h was -15.1%.
With `Fc1cccc(N2CCCC3(CN(Cc4nccs4)CCO3)C2)c1` (stereo not given), the cytotoxicity at 70.5 h is -13.6%.
Next, `O=S(=O)(c1ccccc1)N1C(CN2CCOCC2)[C@]2(O)CC[C@H]1CC2` (stereo not given in full): 16.5%.
The value for `O=C(CCc1ccccc1)C1CCCN(C(=O)c2cncc(Cl)c2)C1` (stereo not given) was -25.5%; that for `Cn1cc(NC(=O)c2cc3c(s2)CCCC3)cn1` was -0.0582%.
Next, `CC(C)N(C)S(=O)(=O)N(Cc1cccs1)Cc1cccs1`: -12.9%; `Cc1nc(CN2C(=O)C[C@@H]3[C@@H]2CCN3C(=O)C2CCOCC2)cs1`: -8.18%; `CN(CC1(O)CCCC1)C(=O)c1cccc(Nc2cnccn2)c1`: -19.5%.
`CC(=O)N1CCOC2(CCCN(C(=O)CCN3CCCCC3)C2)C1` (stereo not given): the cytotoxicity at 70.5 h was -1.24%.
The value for `Cc1nc(N2CC[C@@H](NC(=O)c3cnccn3)[C@H](O)C2)c2ccsc2n1` was -3.33%; that for `O=C(Cn1cc(Cl)cn1)Nc1ccc2c(c1)OCCCO2` was 25.9%; that for `Cc1nc(CCCNC(=O)c2cc(F)ccc2O)n[nH]1` was -9.81%.
Turning to `Cc1cc(C)c(CNC(=O)N(C)Cc2ccoc2)c(=O)[nH]1`, the cytotoxicity at 70.5 h is -2.92%.
For `Cc1ccccc1C1CCN(CCn2cc(-c3nccs3)nn2)C1` (stereo not given), the cytotoxicity at 70.5 h stood at 49.5%.
As for `CN1CCCCC1c1ncc2c(n1)CCN(Cc1ccc(F)cc1)C2` (stereo not given), the cytotoxicity at 70.5 h is -5.99%.
Take `Cc1cc(N2CCCC2)c(C#N)c(C)n1`: the cytotoxicity at 70.5 h stood at 17.6%.
As to `Cc1cc(C2CCC2)nc(N(C)Cc2cc(-c3ccccn3)no2)n1`, the cytotoxicity at 70.5 h is -6.04%.
Next, `CC(C)N(C)S(=O)(=O)N(C)Cc1ccc2c(c1)OCO2`: 20.7%; `Cn1ncc(C(=O)N2CCCC(n3cccn3)C2)c1C1CC1` (stereo not given): -4.62%; `O=C1CC(N(C(=O)c2ccc(Cl)c(Cl)c2)C2CC2)C(=O)N1` (stereo not given): -4.14%.
With `CCc1nnc2n1CCN(CCC(=O)Nc1sccc1C#N)C2`, the cytotoxicity at 70.5 h is -3.22%.
In the case of `COc1ncc(C2(O)CCN(Cc3c(F)cccc3F)CC2)c(OC)n1`, the cytotoxicity at 70.5 h was found to be 31.4%.
`CCOCC(=O)N1CCC2(CC1)COCCN2CCN(C)C`: the cytotoxicity at 70.5 h is -9.1%.
As to `Cc1nn(C)c(N(C)C)c1CNCc1cnn(Cc2ccccc2)c1`, the cytotoxicity at 70.5 h was -2.79%.
`OCCNc1cc(-c2ccncc2)ncn1`: the cytotoxicity at 70.5 h is 0.654%.
`CC(Cn1cccn1)NCc1nc(-c2ccsc2)no1` (stereo not given): the cytotoxicity at 70.5 h was determined as 5.46%.
Regarding `Cc1nc(CN2CCCC(N(C)Cc3cscn3)C2)no1` (stereo not given), the cytotoxicity at 70.5 h is 4.42%.
`Cc1cccc(-n2ncc(C(=O)NCC3CCS(=O)(=O)C3)c2C)c1` (stereo not given): the cytotoxicity at 70.5 h was 0.102%.
Consider `CS(=O)(=O)N1CCN(C(=O)CCC2CCCO2)CC1` (stereo not given), for which the cytotoxicity at 70.5 h is -14.1%.
For the molecule `CCn1nc(C)c2ncnc(NCCN3CCOCC3)c21`, the cytotoxicity at 70.5 h is -3.9%.
`COc1ccccc1CN1C[C@@H](F)[C@@H](OCc2nc3ccccc3[nH]2)C1`: the cytotoxicity at 70.5 h was -0.935%.
In the case of `CC(C)c1noc(CCCC(=O)NC2CCS(=O)(=O)C2)n1` (stereo not given), the cytotoxicity at 70.5 h is -0.791%.
Turning to `O=C(c1cscn1)N1CC[C@@H]2[C@@H]1CCN2CC1CCOC1` (stereo not given in full), the cytotoxicity at 70.5 h is -1.02%.
As to `CCc1nccc(CN2CCCC(CNC(=O)c3ccccn3)C2)n1` (stereo not given), the cytotoxicity at 70.5 h is -3.62%.
The value for `Cc1nn(C)cc1C1CC(=O)Nc2c1cnn2C(C)C` (stereo not given) was -10.7%; that for `COc1ccc2c(=O)ccn(CC(=O)O)c2c1` was 1.58%.
For the molecule `CC(C)C(=O)NC1CCN(Cc2cccc3c2OCCO3)CC1`, the cytotoxicity at 70.5 h is -1.98%.
Regarding `Cn1c(CN2CCOCC2)nnc1C1CCN(C(=O)C2CCCC2)CC1`, the cytotoxicity at 70.5 h stood at 2.41%.
For `COc1ccccc1Cc1nnc(SCCS(C)(=O)=O)o1`, the cytotoxicity at 70.5 h is -7.42%.
In the case of `Cc1ccc(CN2Cc3nccn3CC(Cn3cccn3)C2)s1` (stereo not given), the cytotoxicity at 70.5 h is -4.41%.
Next, `Cc1ccc(NC2CCN(C(=O)CCc3ccccc3)CC2)nn1`: -6.29%; `Cc1nc(COCC2CNCc3nccn3C2)cs1` (stereo not given): 7.13%; `CCCc1nc(CNC(=O)Cc2csc(C)n2)cs1`: 0.825%.
In the case of `COCCn1ccc(=O)c(OCC(=O)Nc2cccc(Cl)c2)c1C`, the cytotoxicity at 70.5 h is -8.65%.
For the molecule `Cc1ccc(S(=O)(=O)CCC(=O)N(C)Cc2cnn(C)c2)cc1`, the cytotoxicity at 70.5 h is -73.6%.
Regarding `O[C@@]1(CNCC2(Cn3ccnc3)CC2)CCCN2CCCC[C@@H]21`, the cytotoxicity at 70.5 h was -13.1%.
For `CC(C)CNC(=O)CC1OCCc2ccsc21` (stereo not given), the cytotoxicity at 70.5 h was -7.58%.
`CC(=O)N1CCCC(c2ccccn2)C1` (stereo not given): the cytotoxicity at 70.5 h worked out at 8.66%.
Turning to `O=c1[nH]c(-c2ccncc2)ncc1-c1ccnc(NC2CCCCC2)n1`, the cytotoxicity at 70.5 h worked out at 18.2%.
Consider `Cn1c(C2CC2)nc2c1CCN(CCOc1cccc(F)c1)C2`, for which the cytotoxicity at 70.5 h is 5.07%.
In the case of `C1CC(CN2CCc3c(nnn3CC3CC3)C2COCC2CC2)C1` (stereo not given), the cytotoxicity at 70.5 h was -8.97%.
Next, `COc1ncccc1C1CC(=O)NCc2nc3ccccn3c21` (stereo not given): 1.55%; `Cn1c(C(=O)N2CCOCC2)nc2c1CCN(c1ncccn1)C2`: -1.44%.
In the case of `O=C(Nc1cc2c(cc1Br)OCCO2)NC1CCS(=O)(=O)C1` (stereo not given), the cytotoxicity at 70.5 h turned out to be 10.1%.
Regarding `CC(=O)N1CCC(c2ccnc(Nc3cncnc3)n2)C1` (stereo not given), the cytotoxicity at 70.5 h was -32.6%.
Next, `CCOCCn1c(=O)[nH]c2cc(C(=O)N(C)Cc3ccno3)ccc21`: -1.24%; `O=C(NC1CCCN(c2ccc(OC(F)F)cc2)C1)c1cnc[nH]1` (stereo not given): -11.2%; `O=C1NCCCCC1NCc1csc(-c2ccsc2)n1` (stereo not given): 7.38%.
For the molecule `COc1ncccc1CNC(=O)NC1CCCOc2ccccc21` (stereo not given), the cytotoxicity at 70.5 h was -4.36%.
`O=C(NCCn1nc(C2CCNC2)c2cccnc21)c1ccccc1` (stereo not given): the cytotoxicity at 70.5 h was -4.57%.
The value for `CSc1ccccc1-n1ccnc1-c1cn(C2CCNCC2)nn1` was 2.69%; that for `Cc1nccc(C(=O)N2CCCC2c2noc(C(C)C)n2)n1` (stereo not given) was 22.8%; that for `COc1ccc(CCC(=O)N2CCN(c3nc(C)ns3)CC2)cc1` was -0.82%.
Regarding `CN(Cc1n[nH]c2c1CCC2)c1nc(C2CCCC2)nc2c1CNC2`, the cytotoxicity at 70.5 h was -8.94%.
Take `CC(C)=CCN1C[C@H]2CC[C@@H]1CN(S(=O)(=O)c1cccnc1)C2`: the cytotoxicity at 70.5 h worked out at 6.15%.
In the case of `CC(NC(=O)NCCCn1cccn1)c1ccncc1` (stereo not given), the cytotoxicity at 70.5 h is -10.8%.
As to `Cn1ccc(C(=O)N2CCC(c3cc(CCO)n(C)n3)C2)n1` (stereo not given), the cytotoxicity at 70.5 h is -5.56%.
`COc1ccc(F)cc1CN1CCCC(c2cc(C(N)=O)[nH]n2)C1` (stereo not given): the cytotoxicity at 70.5 h is -10.6%.
For the molecule `Cc1nn(C)c(N2CCOCC2)c1CNCc1cscn1`, the cytotoxicity at 70.5 h is -9.09%.
Regarding `CN(C)C(=O)N1CCC2(CC1)C(c1cnn(C)c1)CC(=O)N2C` (stereo not given), the cytotoxicity at 70.5 h was -7.08%.
Regarding `Cc1oncc1C(=O)N1CC[C@H]2CO[C@H](CN3CCCC3)[C@H]2C1`, the cytotoxicity at 70.5 h was -7.95%.
On to `CCOCCC(=O)N(C)c1ccc(F)c(Cl)c1`, for which the cytotoxicity at 70.5 h was -7.99%.
In the case of `O=C(c1c[nH]c(=O)c(Cl)c1)N1C[C@@H]2CC[C@H](C1)N(Cc1ccccc1)C2`, the cytotoxicity at 70.5 h is -1.59%.
Regarding `COCCOCC(=O)Nc1nc2c(OC)cc(F)cc2s1`, the cytotoxicity at 70.5 h is -8.97%.
Consider `COc1ccc(C[C@H]2CN(C(=O)c3cscn3)CC[C@@H]2OC)cc1`, for which the cytotoxicity at 70.5 h amounted to 49.9%.
Take `Nc1cc(N2CCCC(Cc3ccc(F)cc3F)(C(=O)O)C2)ncn1` (stereo not given): the cytotoxicity at 70.5 h was -5.98%.
For the molecule `CC(=O)N1CCCN(C2CCCCc3ccccc32)CC1` (stereo not given), the cytotoxicity at 70.5 h was -3.31%.
Regarding `CCCN(CC(F)F)C(=O)CCc1c(C)nc2cc(O)nn2c1C`, the cytotoxicity at 70.5 h came to 23.2%.
Regarding `Cc1cc(C(=O)N2CCCC(n3cncn3)C2)nn1C` (stereo not given), the cytotoxicity at 70.5 h was -10.8%.
Take `c1cnn(CCNCc2csc(-c3ccsc3)n2)c1`: the cytotoxicity at 70.5 h stood at 10.6%.
With `O=C1[C@H]2CN(C3CCOCC3)C[C@H]2CN1Cc1cccc(F)c1`, the cytotoxicity at 70.5 h worked out at 0.427%.
For the molecule `CC(NC1CCCC1)c1ccccc1-n1cccn1` (stereo not given), the cytotoxicity at 70.5 h is -6.22%.
In the case of `COc1ccc(C(=O)N2CCC(Nc3cccnn3)CC2)c(OC)c1`, the cytotoxicity at 70.5 h was -6.9%.
